Test results reported in US4501744A, “Substituted-aza-cytosine compounds and anti-viral uses thereof” (ens BIO LOGICALS Inc., priority 1983, dated 1985).
Values after ≈ are worked out from the molar mass of the structure shown. Like-named read-outs stand apart in the source and are kept apart here.

Tests used:
[1] = test system: herpes simplex virus (HSV); assay: Plaque titration: reduction of plaque size and plaque number of herpes simplex virus in human fetal fibroblasts; type: cell-based; conditions: for IC25 / IC50 / IC75: Fibroblast, human fetal fibroblasts, 48 h
Protocol: Herpes simplex virus (HSV) strains were grown and titrated at 36° C. in human fetal fibroblasts derived from fetal tissues, and used for virus work before the tenth passage. Cells were grown and maintained in basal medium Eagle (BME; Auto-Pow, Flow Laboratories) supplemented with 0.112% sodium bicarbonate, 2 mM 1-glutanine, 2 mg neomycin per 100 ml and 5-20% calf serum. 5% BME, as described hereafter, indicates medium containing 5 ml of calf serum in a total volume of 100 ml.
The titer of the HSV strains is determined by a plaque titration method (Roizman & Roane, "Virology", 15, 75-79, 1961). Tissue culture dishes are seeded with cells and used for assays when approximately 75% monolayer. Volumes (0.2 ml) of logarithmic dilutions of the strain are inoculated onto each of two tissue culture dishes, and adsorbed for 1 hr. with intermittent shaking, the inoculum removed, and 2 ml of 5% BME containing 0.5% human immune serum globulin added. After a 48 hour incubation period at 36° C. in a 5% CO2 atmosphere, the overlay medium is removed and the cell sheets stained with a 0.05% aqueous crystal violet solution. The number of plaques is counted, the duplicates averaged, and the number of plaque-forming units calculated.
The compounds are tested for activity against the herpes simplex strains using a stock solution of each compound freshly prepared by dissolving 1.2 mg in BME. Appropriate dilution of each compound are made in 5% BME containing 0.5% human immune serum globulin just before usage.
Tissue culture dishes (35 by 10 mm) with approximately 75% cell monolayer are inoculated with approximately 50 plaque-forming units of HSV per 0.2 ml, and the virus adsorbed for 1 hour, with intermittent shaking. After removal of the inoculum, 2 ml of 5% BME with 0.5% immune globulin and three-fold dilutions of the appropriate drug are added. One set of dishes receives no drug and is used as a control. After a 48-hour incubation period, at 36° C. in a 5% CO2 atmosphere, the overlay medium is removed, the cells stained as described above, and plaques counted. The counts of replicate plates are averaged, and the number of plaques emerging in the presence of each drug dilution is calculated. The reduction in plaque size caused by the concentration of the drug, as compared with the relevant control, is also measured, visually. […] A reduction in the area of the growing plaque indicates inhibition of plaque growth, i.e. inhibition of viral reproduction, caused by the drug.

[2] = test system: herpes simplex virus (HSV); conditions: disclosed in U.S. Pat. No. 4,347,360; cited from earlier work
Toxicity to host cells = type: cell-based, human; conditions: in the HSV test; human fetal fibroblasts; read-out: concentration up to which no evidence of toxicity was shown
cytomegalovirus (CMV) = assay: CMV plaque (microplaque/ELISA) assay in human fetal fibroblast (lung) HFF cells; type: cell-based; conditions: at a dosage level non-toxic to mammalian cells
Protocol: The compounds of example 3, (5-aza-C*) was tested in vitro for activity against cytomegalovirus, CMV, in mammalian cells. Human fetal fibroblast (lung) HFF cells were used, in generally standard viral plaque titration methods.
Human fetal fibroblast (lung) HFF cells were used, in generally standard viral plaque titration methods. The cells were grown and maintained in Basal Medium Eagle (BME) supplemented with 0.112% sodium bicarbonate, 2 mM L-glutamine, 2 mg % neomycin and 20% (vol/vol) calf serum.
A viral plaque titration method (Roizman & Roane, 1961) was used to determine the virus titre of the CMV. 35 mm tissue culture plates were seeded with HFF 36 P5 and grown to 50-70% monolayer. […]
The cells were incubated for 72 hours at 37° C. in 5% carbon dioxide atmosphere. At 75 hours, the number of CMV infected foci (microplaques) was quantitated using enzyme linked immunosorbent assay (ELISA) using as an enzyme tag horseradish peroxidase and DAB substrate so as to stain the infected foci with a brown precipitate. […]
CMV-positive human serum was diluted 1:10 with PBS, and 0.2 ml of the diluted serum was put in each plate and the plate shaken for 30 minutes. […] Plaques were counted, and numbers of plaques per microscopic field determined.
The reading of the CMV assay was done by comparing no-drug controls to the drug treated plates. […]

[3] = test system: human fetal fibroblasts / mammalian cells; assay: Toxicity to host cells; type: cell-based; conditions: at the dosage level active against HSV and CMV
[4] = read-out: concentration reducing plaque numbers by 25%
[5] = read-out: concentration reducing plaque numbers by 50%
[6] = read-out: concentration reducing plaque size by 25%
[7] = read-out: concentration reducing plaque size by 50%

Row | SMILES | activity against HSV (in words) [1] | activity against herpes simplex virus (in words) [2] | IC25 [1, 4] | IC50 [1, 5] | IC25 [1, 6] | IC50 [1, 7] | MNTC at 48 h (Toxicity to host cells) | activity against CMV (in words) (cytomegalovirus (CMV)) | IC75 ([1]; read-out: concentration reducing plaque numbers by 75%) | IC75 ([1]; read-out: concentration reducing plaque size by 75%) | activity against HSV (in words) ([1]; listed as 5-aza-1-[[1-hydroxymethyl(2-hydroxy)ethoxy]methyl]cytosine) | toxicity to mammalian cells (in words) [3]
1 | Nc1ccn(COC(COCc2ccccc2)COCc2ccccc2)c(=O)n1 [dibenzyl-C*, 1-[[2-benzyloxy-1-(benzyloxymethyl)]ethoxymethyl]cytosine] | exhibited activity against HSV, but to a lesser extent | – | – | – | – | – | – | – | – | – | – | –
2 | Nc1ncnc2c1ncn2COC(CO)CO [9-[[2-hydroxy-1-(hydroxymethyl)ethoxy]-methyl]adenine] | – | active against herpes simplex virus | – | – | – | – | – | – | – | – | – | –
3 | O=c1[nH]c(=O)n(COC(COCc2ccccc2)COCc2ccccc2)cc1F [5F-benzyl-U*, 1-[[2-benzyloxy-1-(benzyloxymethyl)ethoxy]methyl]-5-fluorouracil] | showed activity against HSV | – | 70 µg/mL (≈ 169 µM) | 110 µg/mL (≈ 265 µM) | 10 µg/mL (≈ 24.1 µM) | 50 µg/mL (≈ 121 µM) | > 110 µg/mL | – | – | – | – | –
4 | Nc1ncn(COC(CO)CO)c(=O)n1 [5-aza-C*, 5-aza-1-[[1-hydroxymethyl-[2-hydroxy]-ethoxy]methyl]cytosine] | high activity against the HSV | – | 8 µg/mL (≈ 37 µM) | 30 µg/mL (≈ 139 µM) | 5 µg/mL (≈ 23.1 µM) | 30 µg/mL (≈ 139 µM) | > 304 µg/mL | active | 140 µg/mL (≈ 648 µM) | 110 µg/mL (≈ 509 µM) | active against herpes simplex virus HSV | non-toxic to mammalian cells
